As a reminder, the IC50 is the midpoint of a concentration-inhibition curve. Low values mean greater potency in that assay, high ones weaker potency in that assay.

The source of these data is patent US20090143455A1, “Pyrazoles Useful in the Treatment of Inflammation” (priority 2005, published 2009).

The target of the assay is T1, purified human 15-lipoxygenase (Homo sapiens, UniProt P16050).
T1 sequence (P16050 1-662): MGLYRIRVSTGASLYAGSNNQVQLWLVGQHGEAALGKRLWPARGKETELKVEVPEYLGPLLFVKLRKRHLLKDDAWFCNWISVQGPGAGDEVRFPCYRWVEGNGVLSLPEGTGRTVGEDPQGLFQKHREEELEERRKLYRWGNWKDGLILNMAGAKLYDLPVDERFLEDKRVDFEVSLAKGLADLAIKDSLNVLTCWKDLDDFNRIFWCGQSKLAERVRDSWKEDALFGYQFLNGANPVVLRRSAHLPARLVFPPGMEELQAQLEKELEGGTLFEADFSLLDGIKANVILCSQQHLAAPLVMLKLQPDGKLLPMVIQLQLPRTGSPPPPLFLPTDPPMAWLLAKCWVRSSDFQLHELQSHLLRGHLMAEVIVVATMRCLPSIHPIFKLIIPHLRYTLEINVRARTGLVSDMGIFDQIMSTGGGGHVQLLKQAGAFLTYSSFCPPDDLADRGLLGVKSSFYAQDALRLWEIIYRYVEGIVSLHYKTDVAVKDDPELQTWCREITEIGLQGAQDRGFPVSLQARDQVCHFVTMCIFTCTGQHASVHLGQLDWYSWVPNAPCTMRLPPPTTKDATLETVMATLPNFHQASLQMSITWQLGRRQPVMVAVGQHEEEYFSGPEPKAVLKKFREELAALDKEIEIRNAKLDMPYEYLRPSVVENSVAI
Nature of the assay: 15-lipoxygenase inhibition assay (arachidonic acid oxidation, HPLC readout). It counts as biochemical. As to conditions: arachidonic acid substrate, room temperature. As for the experimental part: The assay employed takes advantage of the ability of lipoxygenases to oxidize polyunsaturated fatty acids, containing a 1,4-cis-pentadiene configuration, to their corresponding hydroperoxy or hydroxyl derivatives. In this particular assay, the lipoxygenase was a purified human 15-lipoxygenase and the fatty acid was arachidonic acid. The assay is performed at room temperature (20-22° C.) and the following are added to each well in a 96-well microtiter plate:
a) 35 μL phosphate buffered saline […] (pH 7.4); b) inhibitor (i.e. compound) or vehicle (0.5 μl DMSO); c) 10 μL of a 10× concentrated solution of 15-lipoxygenase in PBS. […] The plate is then incubated for 10 minutes at room temperature; e) the enzymatic reaction is terminated by the addition of 100 μl MeOH; and f) the amount of 15-hydroperoxy-eicosatetraenoic acid or 15-hydroxy-eicosatetraenoic acid is measured by reverse phase HPLC.

As to `O=C(Nc1ccc(F)cc1F)c1cc(Cl)[nH]n1` [Example 5, 5-Chloro-N-(2,4-difluorophenyl)pyrazole-3-carboxamide], the IC50 turned out to be 265 nM. The compound `O=C(Nc1ccc(F)cc1)c1cc(Cl)[nH]n1` [Example 7, 5-Chloro-N-(4-fluorophenyl)pyrazole-3-carboxamide] yielded an IC50 of 182 nM. On to `O=C(Nc1ccc(Cl)cc1)c1cc(Cl)[nH]n1` [Example 8, 5-Chloro-N-(4-chlorophenyl)pyrazole-3-carboxamide], for which the IC50 is 78 nM. `O=C(Nc1ccccc1OC(F)F)c1cc(Cl)[nH]n1` [Example 19, 5-Chloro-N-(2-difluoro-methoxyphenyl)pyrazole-3-carboxamide] returned an IC50 of 69 nM.
